Test results taken from ChEMBL document CHEMBL1129210, “Epidermal growth factor receptor tyrosine kinase: Structure-activity relationships and antitumour activity of novel quinazolines” (Bioorg Med Chem Lett, 1997).

Molecular target: Epidermal growth factor receptor (Homo sapiens, UniProt P00533)
Assay: Tested for inhibition of Epidermal growth factor receptor from A431 vulval squamous carcinoma cells

Sequence of Epidermal growth factor receptor (P00533 whole entry): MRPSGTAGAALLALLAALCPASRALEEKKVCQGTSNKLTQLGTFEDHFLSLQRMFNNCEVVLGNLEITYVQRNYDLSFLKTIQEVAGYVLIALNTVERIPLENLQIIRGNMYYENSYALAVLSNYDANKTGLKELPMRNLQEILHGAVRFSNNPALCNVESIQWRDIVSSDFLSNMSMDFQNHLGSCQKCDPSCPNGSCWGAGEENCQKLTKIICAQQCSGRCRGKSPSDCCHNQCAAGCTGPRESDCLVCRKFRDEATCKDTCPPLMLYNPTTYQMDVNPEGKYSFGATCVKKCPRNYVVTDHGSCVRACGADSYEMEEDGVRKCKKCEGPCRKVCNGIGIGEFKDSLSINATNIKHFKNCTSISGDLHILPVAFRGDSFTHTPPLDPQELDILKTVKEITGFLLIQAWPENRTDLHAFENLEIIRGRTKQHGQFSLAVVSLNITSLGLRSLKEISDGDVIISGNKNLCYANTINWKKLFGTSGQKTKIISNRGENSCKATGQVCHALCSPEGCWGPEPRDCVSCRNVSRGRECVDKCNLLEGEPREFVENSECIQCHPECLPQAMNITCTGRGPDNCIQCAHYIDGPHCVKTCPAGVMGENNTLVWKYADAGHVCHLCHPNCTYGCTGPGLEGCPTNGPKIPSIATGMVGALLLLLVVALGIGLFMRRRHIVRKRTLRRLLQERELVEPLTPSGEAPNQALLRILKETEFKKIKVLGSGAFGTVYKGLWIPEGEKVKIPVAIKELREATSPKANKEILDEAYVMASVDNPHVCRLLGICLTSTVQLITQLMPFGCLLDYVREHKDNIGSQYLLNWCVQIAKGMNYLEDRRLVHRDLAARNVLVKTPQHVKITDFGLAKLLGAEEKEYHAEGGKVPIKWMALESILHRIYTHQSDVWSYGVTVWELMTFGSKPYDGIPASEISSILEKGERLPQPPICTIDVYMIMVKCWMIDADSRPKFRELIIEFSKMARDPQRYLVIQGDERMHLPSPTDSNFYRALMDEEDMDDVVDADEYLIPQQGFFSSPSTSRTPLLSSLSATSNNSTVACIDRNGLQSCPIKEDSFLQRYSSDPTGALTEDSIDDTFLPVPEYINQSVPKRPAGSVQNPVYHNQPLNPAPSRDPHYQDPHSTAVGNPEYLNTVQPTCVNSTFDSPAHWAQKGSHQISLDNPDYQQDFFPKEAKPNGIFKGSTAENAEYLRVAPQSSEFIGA

SMILES | IC50 [nM]
COc1cc2ncnc(Nc3cnc4ccccc4n3)c2cc1OC | 780
COc1cc2ncnc(N3CCc4ccccc43)c2cc1OC | 820
COc1cc2ncnc(Nc3nnc4ccccc4n3)c2cc1OC | 820
COc1cc2ncnc(NNc3ccc(F)c(Cl)c3)c2cc1OC | 430
COc1cc2ncnc(Nc3cncc4ccccc34)c2cc1OC | 6.4
COc1cc2ncnc(NCc3cccc(C)c3)c2cc1OC | 170
COc1cc2ncnc(/N=N/c3ccc(F)c(Cl)c3)c2cc1OC | 730

Continued, values first:

IC50 [nM] | SMILES
10 | COc1cc2ncnc(NC3CC3c3ccccc3)c2cc1OC (centres undefined)
910 | COc1cc2ncnc(NC3CCc4ccccc43)c2cc1OC (centres undefined)
200 | COc1cc2ncnc(Nc3nccc4ccccc34)c2cc1OC
84 | COc1cc2ncnc(NC3CC3c3ccccc3)c2cc1OC(C)=O (centres undefined)
390 | COc1cc2ncnc(NC3CC3c3ccccc3)c2cc1O (centres undefined)
300 | COc1cc2ncnc(NC3CC3c3ccccc3)c2cc1OCCN1CCOCC1 (centres undefined)
27 | COc1cc2ncnc(NC3CC3c3ccccc3)c2cc1OCCCN(C)C (centres undefined)
